Measurements taken from patent US7504398B2, “Substituted-4-(pyrrolo pyrimidin-6-yl)benzenesulphonamide derivatives” (Laboratorios Almirall S.A., priority 2002, dated 2009).

What follows are compounds tested against T1, hA2A receptors (Homo sapiens, UniProt P29274) (assay: Adenosine 2A receptor subtype competition radioligand binding). Conditions: membranes from hA2A receptors transfected to HEK293 cells, [3H]ZM241385 as radioligand, 90 min at 25° C.; read-out: IC50 A2A.
T1 construct: purchased Receptor Biology, Inc. (USA); host or cells: HEK293
T1 sequence (P29274 whole entry): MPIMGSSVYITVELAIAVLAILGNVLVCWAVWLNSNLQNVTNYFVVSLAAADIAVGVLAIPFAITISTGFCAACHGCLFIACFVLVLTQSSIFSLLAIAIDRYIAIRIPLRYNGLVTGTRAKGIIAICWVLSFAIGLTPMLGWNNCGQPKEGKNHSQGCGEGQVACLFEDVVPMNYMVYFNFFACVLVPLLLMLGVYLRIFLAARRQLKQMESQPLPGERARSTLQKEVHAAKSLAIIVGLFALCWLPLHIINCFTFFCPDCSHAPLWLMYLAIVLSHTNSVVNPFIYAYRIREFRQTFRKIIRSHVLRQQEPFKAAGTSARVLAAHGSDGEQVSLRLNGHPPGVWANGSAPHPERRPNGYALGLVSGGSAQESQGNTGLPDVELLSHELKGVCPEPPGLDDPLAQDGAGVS
Description: Adenosine 2A Receptor Subtype Competition Radioligand Binding
Human membranes from recombinant A2A receptors were purchased from Receptor Biology, Inc. (USA).
Competition assays were carried out by incubation of membranes from hA2A receptors transfected to HEK293 cells, [^3H]ZM241385 as radioligand, buffer (50 mM Tris-HCl (pH 7.4), 10 mM MgCl2, 1 mM EDTA, 2 units/ml adenosine deaminase), and unlabelled ligand in a total volume of 0.2 ml for 90 min at 25° C. NECA was used to determinate non-specific binding. Filter over Schleicher&Schuell GF/52 filters (pre-soaked 0.5% polyethylenyimine) in a Brandel cell harvester. Unbound radioligand was removed with 3×3 ml ice-cold 50 mM Tris-Hcl 50 (pH 7.4), 0.9% NaCl.
In the case of `CCn1c(=O)c2[nH]c(-c3ccc(S(=O)(=O)NC4CCN(Cc5ccc(F)cc5)CC4)cc3)cc2n(CC)c1=O` [Example 69, 4-(1,3-Diethyl-2,4-dioxo-2,3,4,5-tetrahydro-1H-pyrrolo[3,2-d]pyrimidin-6-yl)-N-[1-(4-fluorobenzyl)piperidin-4yl]benzenesulphonamide], the IC50 is reported as 84 nM. `Cn1c(=O)c2[nH]c(-c3ccc(S(=O)(=O)Nc4ccccn4)cc3)cc2n(C)c1=O` [Example 38, 4-(1,3-Dimethyl-2,4-dioxo-2,3,4,5-tetrahydro-1H-pyrrolo[3,2-d]pyrimidin-6-yl)-N-pyridin-2-ylbenzenesulphonamide] gave an IC50 of 75 nM. With `CCCn1c(=O)c2[nH]c(-c3ccc(S(=O)(=O)NC4CCN(Cc5ccccc5)CC4)cc3)cc2n(CCC)c1=O` [Example 97, N-(1-Benzylperidin-4-yl)-4-(2,4-dioxo-1,3-dipropyl-2,3,4,5-tetrahydro-1H-pyrrolo[3,2-d]pyrimidin-6-yl)benzenesulphonamide] the IC50 was 60 nM. `CCn1c(=O)c2[nH]c(-c3ccc(S(=O)(=O)N4CCN(Cc5ccc(Cl)s5)CC4)cc3)cc2n(CC)c1=O` [Example 59, 6-{4-[4-(5-Chlorothiophen-2-ylmethyl)piparazine-1-sulphonyl]phenyl}-1,3-diethyl-1,5-dihydropyrrolo[3,2-d]pyrimidine-2,4dione] showed an IC50 of 28 nM. For `Cn1c(=O)c2[nH]c(-c3ccc(S(=O)(=O)N4CCN(Cc5ccc(Cl)s5)CC4)cc3)cc2n(C)c1=O` [Example 18, 6-{4-[4-(5-Chlorothiophen-2-ylmethyl)piperazine-1-sulphonyl]phenyl}-1,3-dimethyl-1,5-dihydropyrrolo[3,2-d]pyrimidine-2,4-dione], the IC50 was 85 nM.

Each compound was assayed against T2, hA2B receptors (Homo sapiens, UniProt P29275) (assay: Adenosine 2B receptor subtype competition radioligand binding). Conditions: membranes from hA2B receptors transfected to HEK293 cells, [3H]DPCPX as radioligand, 30 min at 25° C.; read-out: IC50 A2B.
T2 construct: purchased Receptor Biology, Inc. (USA); host or cells: HEK293
T2 sequence (P29275 1-332): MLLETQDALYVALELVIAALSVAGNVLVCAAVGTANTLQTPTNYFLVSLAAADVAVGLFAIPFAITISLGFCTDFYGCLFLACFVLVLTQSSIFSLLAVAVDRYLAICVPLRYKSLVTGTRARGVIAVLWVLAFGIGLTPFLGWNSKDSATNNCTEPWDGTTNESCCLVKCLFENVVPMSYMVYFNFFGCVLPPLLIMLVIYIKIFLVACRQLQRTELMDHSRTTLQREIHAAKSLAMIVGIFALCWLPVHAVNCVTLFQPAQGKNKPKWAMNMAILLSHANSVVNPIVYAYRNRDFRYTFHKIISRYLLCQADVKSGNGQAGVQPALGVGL
Description: Adenosine 2B Receptor Subtype Competition Radioligand Binding
Human membranes from recombinant A2B receptors were purchased from Receptor Biology, Inc.(USA).
Competition assays were carried out by incubation of membranes from hA2B receptors transfected to HEK293 cells, [^3H]DPCPX as radioligand, buffer (50 mM Tris-HCl (pH 6.5), 10 mM MgCl2, 1 mM EDTA, 0.1 mM benzamidine, 2 units/ml adenosine deaminase), and unlabelled ligand in a total volume of 0.1 ml for 30 min at 25° C. NECA was used to determinate non-specific binding. Filter over Schleicher&Schuell GF/52 filters (pre-soaked 0.5% polyethylenyimine) in a Brandel cell harvester. Unbound radioligand was removed with 4×2 ml ice-cold 50 mM Tris-Hcl (pH 6.5).
For `CCCn1c(=O)c2[nH]c(-c3ccc(S(=O)(=O)N4CCN(Cc5ccc(F)cc5)CC4)cc3)cc2n(C)c1=O` [Example 107, 6-{4-[4-(4-Fluorobenzyl)piperazine-1-sulphonyl]phenyl}-1-methyl-3-propyl-1,5-dihydropyrrolo[3,2-d]pyrimidine-2,4-dione], the IC50 was 9 nM. Compound `Cn1c(=O)c2[nH]c(-c3ccc(S(=O)(=O)N4CCN(Cc5cccc(F)c5)CC4)cc3)cc2n(C)c1=O` [Example 3, 6-{4-[4-(3-Fluorobenzyl)piperazine-1-sulphonyl]phenyl}-1,3-dimethyl-1,5-dihydropyrrolo[3,2-d]pyrimidine-2,4-dione] has an IC50 of 7 nM. In the case of `Cn1c(=O)c2[nH]c(-c3ccc(S(=O)(=O)N4CCN(Cc5ccccc5)CC4)cc3)cc2n(C)c1=O` [Example 1, 6-[4-(4-Benzylpiperazine-1-sulphonyl)phenyl]-1,3-dimethyl-1,5-dihydropyrrolo[3,2-d]pyrimidine-2,4-dione], the IC50 is reported as 16 nM. `CCCn1c(=O)c2[nH]c(-c3ccc(S(=O)(=O)N4CCN(Cc5ccc6c(c5)OCO6)CC4)cc3)cc2n(C)c1=O` [Example 118, 6[4-(4-Benzol[1,3]dioxol-5-ylmethylpiperazine-1-sulphonyl)phenyl]-1-methyl-3-propyl-1,5-dihydropyrrolo[3,2-d]pyrimidine-2,4-dione] gave an IC50 of 6 nM. `COc1ccc(NS(=O)(=O)c2ccc(-c3cc4c([nH]3)c(=O)n(C)c(=O)n4C)cc2)cn1` [Example 36, 4-(1,3-Dimethyl-2,4dioxo-2,3,4,5-tetrahydro-1H-pyrrolo[3,2-d]pyrimidin-6-yl)-N-(6-methoxypyridin-3-yl)benzenesulphonamide] showed an IC50 of 18 nM. `COc1cccc(OCCNS(=O)(=O)c2ccc(-c3cc4c([nH]3)c(=O)n(C)c(=O)n4C)cc2)n1` [Example 173, 4-(1,3-Dimethyl-2,4-dioxo-2,3,4,5-tetrahydro-1H-pyrrolo[3,2-d]pyrimidin-6-yl)-N-[2-(6-methoxypyridin-2-yloxy)ethyl]benzenesulfonamide] was tested, and the IC50 was 5 nM. `CCCn1c(=O)c2[nH]c(-c3ccc(S(=O)(=O)NCCc4ccccn4)cc3)cc2n(C)c1=O` [Example 132, 4-(1-Methyl-2,4-dioxo-3-propyl-2,3,4,5-tetrahydro-1H-pyrrolo[3,2-d]pyrimidin-6-yl)-N-(2-pyridin-2-ylethyl)benzenesulphonamide] gave an IC50 of 17 nM. `Cn1c(=O)c2[nH]c(-c3ccc(S(=O)(=O)Nc4ccccn4)cc3)cc2n(C)c1=O` [Example 38, 4-(1,3-Dimethyl-2,4-dioxo-2,3,4,5-tetrahydro-1H-pyrrolo[3,2-d]pyrimidin-6-yl)-N-pyridin-2-ylbenzenesulphonamide] was tested, and the IC50 was 12 nM. `Cn1c(=O)c2[nH]c(-c3ccc(S(=O)(=O)NCCOc4ccccn4)cc3)cc2n(C)c1=O` [Example 172, 4-(1,3-Dimethyl-2,4-dioxo-2,3,4,5-tetrahydro-1H-pyrrolo[3,2-d]pyrimidin-6-yl)-N-[2-(pyridin-2-yloxy)ethyl]benzenesulfonamide] was tested, and the IC50 was 17 nM. `Cn1c(=O)c2[nH]c(-c3ccc(S(=O)(=O)NCCc4ccccn4)cc3)cc2n(C)c1=O` [Example 37, 4-(1,3-Dimethyl-2,4-dioxo-2,3,4,5-tetrahydro-1H-pyrrolo[3,2-d]pyrimidin-6-yl)-N-(2-pyridin-2-ylethyl)benzenesulphonamide] showed an IC50 of 14 nM. `Cn1c(=O)c2[nH]c(-c3ccc(S(=O)(=O)N4CCN(Cc5ccc(Cl)s5)CC4)cc3)cc2n(C)c1=O` [Example 18, 6-{4-[4-(5-Chlorothiophen-2-ylmethyl)piperazine-1-sulphonyl]phenyl}-1,3-dimethyl-1,5-dihydropyrrolo[3,2-d]pyrimidine-2,4-dione] showed an IC50 of 4 nM. In the case of `CCCn1c(=O)c2[nH]c(-c3ccc(S(=O)(=O)N4CCN(c5ccccn5)CC4)cc3)cc2n(C)c1=O` [Example 126, 1-Methyl-3-propyl-6-[4-(4-pyridin-2-yipiperazine-1-sulphonyl)phenyl]-1,5-dihydropyrrolo[3,2-d]pyrimidin-2,4-dione], the IC50 is reported as 12 nM.
